Experimental data as given in patent publication US20230340061A1, “PEPTIDES AND METHODS FOR THE TREATMENT OF MULTIPLE SCLEROSIS” (IMCYSE SA, priority 2020, published 2023).

Assays:
[1] = test system: CD4+ T cells of patients with multiple sclerosis; assay: Generation of antigen specific CD4+ T cells, CD154 (CD40L) expression by flow cytometry; format: cell-based, human
Protocol: PBMCs were isolated from blood samples of patients with multiple sclerosis treated by dimethyl fumarate (DMF) on Lymphoprep density gradients.
CD14+ monocytes were isolated from these PBMCs by performing positive immunomagnetic separation with CD14 microbeads (Miltenyi Biotec, 130-050-201) according to the supplier recommendations. CD14+ monocytes were cultured for six days and maturated to generate autologous dendritic cells (mDC). CD19+ B cells were isolated from the CD14- PBMCs fraction by performing positive immunomagnetic separation with CD19 microbeads (Miltenyi Biotec, 130-050-301) according to the supplier recommendations. CD19+ B cells were cultured and immortalized with EBV to generate autologous lymphoblastoid cell lines (LCL).
(§1) Naïve CD4+ T cells were also purified from the CD14- PBMCs fraction by performing negative immunomagnetic separation with naïve CD4+ T cell isolation kit (Miltenyi Biotec, 130-094-131) according to the supplier recommendations. Naïve CD4+ T cells were co-cultured with autologous mDC or LCL in the presence of P2 and P4 peptides. The CD4+ T cells were re-stimulated periodically, about every 10-12 days.
The ability of the peptides to generate antigen specific CD4+ T cells was evaluated by flow cytometry analysis of the TCR induced surface activation marker CD154 (CD40L) expression after overnight co-culture at resting state with autologous LCL without (no peptide) or with the peptides (P2 or P4). The surface expression of the lytic marker Fas ligand (CD178) was also evaluated by flow cytometry analysis after overnight co-culture at resting state with autologous LCL without (no peptide) or with the peptide (P4).

[2] = test system: CD4+ T cells of patients with multiple sclerosis; assay: Cytokine secretion in CD4+ T cell culture supernatants (LEGENDplex Human Th Panel); format: cell-based; settings: for specific secretion of cytokine (IL-5): culture supernatant of MS017 (S15) CD4+ cell line, P4 vs C-WT epitope peptides
Description: as §1
The ability of the peptides to induce cytokines secretion in CD4+ T cells culture supernatants was evaluated by flow cytometry analysis after overnight co-culture at resting state with autologous mDC without (no peptide) or with the peptides (P2 or P4). Supernatants were analyzed with the LEGENDplex Human Th Panel (13-plex) (BioLegend, 740721) according to the supplier recommendations.

[3] = Oxidoreductase activity, fluorescent assay with FITC labelled peptides; format: biochemical; settings: reduction of self-quenched FITC labelled peptides, fluorescence
Description: The peptides of the invention comprise an MHC class II T-cell epitope or NKT cell epitope of MOG with a potential to trigger an immune reaction, and a modified oxidoreductase motif. The reducing activity of the motif sequence in the peptide can be assayed for its ability to reduce a sulfhydryl group such as in the insulin solubility assay wherein the solubility of insulin is altered upon reduction, or with a fluorescence-labelled substrate such as insulin. An example of such assay uses a fluorescent peptide and is described in Tomazzolli et al. (2006) Anal. Biochem. 350, 105-112. Two peptides with a FITC label become self-quenching when they covalently attached to each other via a disulfide bridge. Upon reduction by a peptide in accordance with the present invention, the reduced individual peptides become fluorescent again.
The oxidoreductase activity of the immunogenic peptides is determined using a fluorescent assay described in Tomazzolli et al. (2006) Anal. Biochem. 350, 105-112. Two peptides with a FITC label become self-quenching when they form a covalent disulfide bond. Upon reduction by a peptide in accordance with the present invention, the reduced individual FITC labelled peptides emit fluorescence again. The activity is expressed as the mean of duplicates. The results are expressed in Relative Fluorescent Units (RFU). […]

[4] = test system: Experimental Auto-Immune Encephalomyelitis (EAE); assay: Therapeutic administration in MOG35-55-induced EAE; format: in vivo; settings: 30 μg s.c. with alum, days 4, 9, 14, 19
Protocol: The study used a total of 48 female C57BL/6 mice (Taconic Biosciences, 9 weeks old on Day 0). Mice were acclimated for 7 days prior to the first injection. Mice were assigned to groups in a balanced manner to achieve similar average weight across the groups at the start of the study.
Dosing of all mice was performed once on each of the days indicated in Table 2, s.c., at a volume of 0.05 mL/site, each mouse receiving injection at two sites, for a total of 0.1 mL/mouse/dosing day. IMCY-0189 or P4 peptide total dose was 30 μg per administration.
Lyophilized immunogenic peptide IMCY-0189 with the sequence […] (SEQ ID NO: 260), comprising an oxidoreductase motif HCPYC (SEQ ID NO: 24), a linker GW, a murine Myelin Oligodendrocyte Glycoprotein (MOG35-55) MHCII T cell epitope […] (SEQ ID NO: 261) and a flanking sequence HLYR (SEQ ID NO: 262) (Smart Bioscience) was solubilized immediately before use. Lyophilized IMCY-0189 was thawed at room temperature for 10 minutes, resuspended in Na Acetate buffer 50 mM NaCl 0.9% pH 5.4 and incubated at room temperature for 10 minutes. Reconstituted peptide was then mixed with Imject™ Alum Adjuvant before injection.
Lyophilized immunogenic peptide P4 with the sequence […] (SEQ ID NO: 27), comprising an oxidoreductase motif KHCPYC (SEQ ID NO: 50), a linker VRY, a human Myelin Oligodendrocyte Glycoprotein (MOG201-212) MHCII T cell epitope […] (SEQ ID NO: 2) and a flanking sequence TLFKK (SEQ ID NO: 263) (Smart Bioscience) was solubilized immediately before use. Lyophilized P4 was thawed at room temperature for 10 minutes, resuspended in Na Acetate buffer 50 mM NaCl 0.9% pH 5.4 and incubated at room temperature for 10 minutes. Reconstituted peptide was then mixed with Imject™ Alum Adjuvant before injection.
EAE was induced in all mice as follows: • Day 0, Hour 0—Immunization with a peptide corresponding to the amino acids 35-55 of MOG (MOG35-55)/CFA • Day 0, Hour 2—Injection of pertussis toxin • Day 1, Hour 0—2nd injection of pertussis toxin (24 hours after initial immunization).
Mice were injected subcutaneously at two sites in the back with the emulsion component (containing MOG35-55) of Hooke Kit™ MOG35-55/CFA Emulsion PTX, catalog number EK-2110 (lot #131, Hooke Laboratories, Lawrence MA). One site of injection was in the area of upper back, approximately 1 cm caudal of the neck line. The second site was in the area of lower back, approximately 2 cm cranial of the base of the tail. The injection volume was 0.1 mL at each site. Each mouse received 200 μg of MOG35-55.
Within 2 hours of the injection of emulsion, and then again 24 hours after the injection of emulsion, the pertussis toxin component of the kit was administered intraperitoneally. The pertussis toxin (lot #1008, Hooke Laboratories) was administered at 90 ng/dose for both injections and the volume of each injection was 0.1 mL.
Animals were scored daily starting from Day 7 to the end of the study. Scoring was performed blind, by a person unaware of both treatment and of previous scores for each mouse. In-between scores were assigned when the clinical signs fell between two above defined scores.
On Day 28, blood was collected from all mice into gel clot activator tubes and allowed to clot at room temperature for ˜30 minutes. Blood is then centrifuged at ˜10000 g for 5 minutes. Serum was transferred into Eppendorf tubes and stored at −80° C. until shipment to Quanterix™. Serum Neurofilament light (NF-L) protein levels were quantified using Simoa® NF-light Advantage kit, a digital immunoassay for the quantitative determination of NF-L in serum, plasma and CSF. The used antibodies (Uman Diagnostics, Umea Sweden) also cross react with murine, bovine and macaque NF-L epitopes and as such, this assay can be used for research with these species. All samples were tested in duplicate at a dilution factor of 40×. […]

[5] = test system: Experimental Auto-Immune Encephalomyelitis (EAE); assay: Prophylactic administration in adoptive-transfer EAE; format: in vivo, mice; settings: 100 μg s.c. with alum, days −21, −14, −7, +2, +9
Protocol: EAE was induced in recipient mice by immunizing donor B6.SJL mice with MOG35-55/CFA, and then, 11 days later, by taking their spleens and restimulating them in culture with MOG35-55 peptide for 3 days. Those cells, now fully encephalitogenic, were injected on Day 0 into recipient groups of mice, which developed EAE.
B6.SJL donor mice were acclimated for 13 days before the start of the study and were 9 weeks old at the time of immunization. Donor mice were used to generate encephalitogenic cells as follows: • Day −14: Immunization with MOG35-55/CFA. • Day −3: Spleen harvest. Mice were euthanized and spleens were harvested, pooled and cell suspension prepared. Cell suspension, at 4 to 5 million cells/mL in T150 flasks, were set up in cultures in the presence of MOG35-55 peptide (20 μg/mL), IL-12 ([…]) and anti-IFNγ (7 μg/mL) for 3 days to generate encephalitogenic T cells. • Day 0: Cell collection and transfer. Cells were collected and spun down, resuspended in RPM11640 (no FCS), counted, and injected into recipient mice at 10 million cells per mouse.
Recipient mice were acclimated for 6 days prior to the first injection and were 6 weeks old when treatment started (on Day −21). Mice were assigned to groups in a balanced manner, to achieve similar average weight across the groups at the start of the study.
Dosing of all mice was performed once on each of the days indicated in Table 4, s.c., at a volume of 0.05 mL/site, each mouse receiving injection at two sites, for a total of 0.1 mL/mouse/dosing day, corresponding to 100 μg of peptide.
For Vehicle treatment, Imject™ Alum solution was prepared at each dosing day. IMCY-0189 has the sequence described in example 6. Lyophilized IMCY-0189 was thawed at room temperature for 10 minutes, resuspended in Na Acetate buffer 50 mM pH 5.4 and incubated at room temperature for 5 minutes. Reconstituted peptide was then mixed with Imject™ Alum Adjuvant before injection.
At termination, blood was collected from all mice into tubes containing K2EDTA and mixed gently. Blood was then centrifuged at ˜10000 g for 5 minutes. Plasma was transferred into Eppendorf tubes and stored at −80° C. until shipment to Quanterix™. Plasma Neurofilament light (NF-L) protein levels were quantified using Simoa© NF-light Advantage kit as described in example 6.
EAE scoring, terminal collection, histology analyses and statistical analyses were performed as described in example 6.

[6] = molecular target: T1, soluble HLA-DRB1*03:01 human MHC II protein (human); assay: soluble-phase competition vs biotin-labelled control peptide, Eu3+-streptavidin time-resolved fluorescence
T1 construct: Soluble protein purchased from the Benaroya Research Institute; also called HLA-DR3; DR3

[7] = molecular target: T2, soluble HLA-DRB1*04:01 human MHC II protein (human); assay: soluble-phase competition vs biotin-tagged control peptide, Eu3+-streptavidin fluorescence (FIG. 3)
T2 construct: Soluble protein purchased from the Benaroya Research Institute; also called HLA-DR4; DR4
Protocol: To test the binding of the immunogenic peptides to MHCII molecules, a soluble phase competition assay is performed. […] As binding approaches its equilibrium (18h), biotin-labelled peptide/MHC II complexes are captured, separated from unbound reagents, and quantitatively detected by time-resolved fluorescence (Eu³⁺ streptavidin, Perkin Elmer, Brussels, Belgium). […] Data are processed and plotted to ascertain dose-dependent binding properties of test peptides. All the tests are performed in triplicates.

Molecule: DPHFLRVPCWKITLFKK [short C-WT, reference compound]
- specific induction of effector cells (CD3+CD4+CD154+) ([1]; P4-specific CD4+ cell lines of patients MS017 (S14) and MS026 (S13), overnight co-culture): specific induction
- specific secretion of cytokine (IL-5) [2]: specific secretion

Molecule: HCHGCVRYFLRVPCWKI [P6]
- oxidoreductase activity [3]: displayed oxidoreductase activity

Molecule: HCPYCGG-FLRVPCWKI [P7]
- oxidoreductase activity [3]: displayed oxidoreductase activity

Molecule: HCPYCGWYRSPFSRVVHLYR [IMCY-0189]
- mortality ([4]; to day 28): No mice died
- AUC (area under the curve) of EAE scores ([4]; vs Saline group): statistically significant reduced
- MMS (mean maximal score) ([4]; vs Saline group): statistically significant reduced
- disease onset ([4]; vs Saline group): postponed
- level of demyelination (anti-MBP stained spinal cord sections) ([4]; vs Saline group): statistically significantly reduced level
- level of inflammation (inflammatory foci, H&E stained spinal cord sections) ([4]; vs Saline group): statistically significantly reduced level
- serum NF-L levels ([4]; Day 28, vs Saline group): statistically significant reduced
- end score ([4]; EAE score 0-5, vs Saline group): reduced
- mortality [5]: No mice died
- AUC (area under the curve) of EAE scores ([5]; vs Alum group): statistically significantly improved
- MMS (mean maximal score) ([5]; vs Alum group): statistically significantly improved
- disease onset ([5]; vs Alum group): statistically significantly improved
- end score ([5]; vs Alum group): statistically significantly improved
- level of demyelination (anti-MBP stained spinal cord sections) ([5]; vs Alum group): statistically significantly reduced level
- level of inflammation (inflammatory foci, H&E stained spinal cord sections) ([5]; vs Alum group): statistically significantly reduced level
- plasma NF-L levels ([5]; at termination, vs Alum group): statistically significantly reduced

Molecule: HCPYCVRYFLRVPSWKITLF [P2]
- generation of peptide-specific CD4+ T cell lines from MS patients ([1]; naive CD4+ T cells co-cultured with autologous mDC or LCL in presence of peptide): able to generate P2-specific CD4+ T cell lines from four different MS patients
- frequency of effector cells (CD3+CD4+CD154+) ([1]; patients' CD4+ cell lines, overnight co-culture with autologous LCL with peptide vs no peptide): high frequency
- specific secretion of cytokines (IL-5 and IL-13) ([2]; culture supernatant of MS026 CD4+ cell line (S11)): specific secretion

Molecule: QYRLRGKLRAEIENLHRTFDPHFLRVPCWKITLFVIVPVLGP [long C-WT, reference compound]
- specific secretion of cytokine (IL-5) [2]: specific secretion

B1: P2 peptide HCPYCVRYFLRVPSWKITLF (peptide)
peptide: HCPYCVRYFLRVPSWKITLF
notes: Synthetic
- binding result [6]: binds
- binding result [7]: binds
